According to patent US20130273176A1, “METHODS AND COMPOSITIONS USEFUL FOR PROMOTING SLEEP IN ANIMALS” (Nestec SA, priority 2010, published 2013):

Assays:
senior dogs [1] = test: Actiwatch activity recording, Example 2 (melatonin only, cross-over, AM or PM); format: in vivo, dog; details: for Total Daytime Activity Counts: melatonin only, mean +/- std error
Method: Using a cross-over design, all animals were administered a control placebo and a treatment supplement containing melatonin. The animals were senior animals, dogs greater than 10 years of age. There were 4 males and 4 females in each group. For the intervention phases (phases 2 and 4), all animals were administered melatonin in the AM or PM. During the control and cross-over phases (phase 1 and 3, respectively) the animals were administered a placebo comprising methylcellulose contained in a gel capsule in the AM or PM, as appropriate. Each phase lasted 35 days. Starting on day 29 of each phase, the animals locomotor behavioral activity was monitored for 4 consecutive days. The placebo consisted of the carrier (methylcellulose) contained in a gel capsule and was provided during the control phases (Phases 1 and 3) either with the AM or PM feeding, as appropriate to complement the supplement time (luring the following intervention phase. For example, placebo in AM during phase 1, then supplement in AM during phase 2. For phase 2, the first supplement treatment phase, the animals were given supplements of melatonin. Further, for half of the animals, the supplements were in the morning with the AM feeding and half were given in the evening with the PM feeding. Thus, of the 4 males, 2 were administered the melatonin in the morning and two in the evening. During phase 3, the second control phase, delivery of the methylcellulose in a gel capsule was provided either with the AM or PM feeding, as appropriate to cross-over the treatment from phase 1-2. For phase 4, the second supplement treatment phase, the procedure was exactly the same as phase 2, except that for a given animal the supplementation time was switched from phase 2. Thus, if male was administered melatonin in the morning with the AM feeding in phase 2, the male was administered melatonin in the evening with the PM feeding in phase 4. Data analysis of periods indicated no period effect. Therefore, all control data were compiled into a single dataset, as well as all treatment data for each supplement time (AM or PM). Statistical analysis was based on AM control vs. AM treatment, and PM control vs. PM Treatment. Twenty-four hour activity rhythms were assessed for 5 consecutive days and 5 nights for Example 1 or 3 consecutive days and 4 nights for Example 2 using the Actiwatch method (Mini-Mitter® Actiwatch-16® activity monitoring system, Respironics Co. Inc., Bend, Oreg.). The Actiwatch® was placed inside a specially designed animal case and attached to a collar around the dog's neck. The dogs were allowed to follow their usual patterns of activity, test, exercise, and feeding. Daytime activity was recorded to represent the 12 hour light phase from 7 am to 7 pm. […]

senior dogs [2] = test: Actiware sleep analysis, Example 2 (melatonin only, cross-over, AM or PM); format: in vivo, dog; details: for Nap Duration / Total Daytime Naps / Total Daytime Sleep Minutes / Total Night-Time Awakenings / Total Night-Time Wake Minutes: melatonin only, mean +/- std error
Method: Using a cross-over design, all animals were administered a control placebo and a treatment supplement containing melatonin. The animals were senior animals, dogs greater than 10 years of age. There were 4 males and 4 females in each group. For the intervention phases (phases 2 and 4), all animals were administered melatonin in the AM or PM. During the control and cross-over phases (phase 1 and 3, respectively) the animals were administered a placebo comprising methylcellulose contained in a gel capsule in the AM or PM, as appropriate.
Each phase lasted 35 days. Starting on day 29 of each phase, the animals locomotor behavioral activity was monitored for 4 consecutive days.
The placebo consisted of the carrier (methylcellulose) contained in a gel capsule and was provided during the control phases (Phases 1 and 3) either with the AM or PM feeding, as appropriate to complement the supplement time (luring the following intervention phase. For example, placebo in AM during phase 1, then supplement in AM during phase 2.
For phase 2, the first supplement treatment phase, the animals were given supplements of melatonin. Further, for half of the animals, the supplements were in the morning with the AM feeding and half were given in the evening with the PM feeding. Thus, of the 4 males, 2 were administered the melatonin in the morning and two in the evening.
During phase 3, the second control phase, delivery of the methylcellulose in a gel capsule was provided either with the AM or PM feeding, as appropriate to cross-over the treatment from phase 1-2.
For phase 4, the second supplement treatment phase, the procedure was exactly the same as phase 2, except that for a given animal the supplementation time was switched from phase 2. Thus, if male was administered melatonin in the morning with the AM feeding in phase 2, the male was administered melatonin in the evening with the PM feeding in phase 4.
Data analysis of periods indicated no period effect. Therefore, all control data were compiled into a single dataset, as well as all treatment data for each supplement time (AM or PM). Statistical analysis was based on AM control vs. AM treatment, and PM control vs. PM Treatment.
Twenty-four hour activity rhythms were assessed for 5 consecutive days and 5 nights for Example 1 or 3 consecutive days and 4 nights for Example 2 using the Actiwatch method (Mini-Mitter® Actiwatch-16® activity monitoring system, Respironics Co. Inc., Bend, Oreg.). The Actiwatch® was placed inside a specially designed animal case and attached to a collar around the dog's neck. The dogs were allowed to follow their usual patterns of activity, test, exercise, and feeding.
The Actiware® software was used to generate total daily, light phase (12-h daytime: 7 am-7 pm), and dark phase (12-h night-time: 7 PM-7 AM) total sleep or wake minutes. Light phase naps represent sleep bouts occurring during the 12-h light phase interval. Dark phase wake bouts relied awake activity during the night-time sleep interval and not the 12-h dark phase interval. Total number of bouts and bout duration were determined for both light phase naps and dark phase awakenings.
The total number of sleep minutes recorded during the daytime phase of Example 2 was used to calculate the number of nap bouts and average nap duration during this same period.

COc1ccc2[nH]cc(CCNC(C)=O)c2c1 [Melatonin Only, melatonin]
Total Daytime Activity Counts (senior dogs [1]; AM Supplement): 115,705 +/− 23,249 | Total Daytime Activity Counts (senior dogs [1]; PM Supplement, 1 mg/kg BW, 35 days): 114,816 +/− 34,282 | reduction in total daytime activity counts compared to dogs on the control food (senior dogs [1]; PM, melatonin 1 mg/kg BW, 35 days, not statistically significant): 16% | daytime activity effect versus placebo group (senior dogs [1]; melatonin supplemented in the AM): not significantly different from the placebo group | Nap Duration (senior dogs [2]; AM Supplement): 4.2 +/− 0.7 | Total Daytime Naps (senior dogs [2]; AM Supplement): 58.3 +/− 3.5 | Total Daytime Sleep Minutes (senior dogs [2]; AM Supplement): 240 ± 32 min | Total Night-Time Awakenings (senior dogs [2]; AM Supplement): 69.5 +/− 6.9 | Total Night-Time Wake Minutes (senior dogs [2]; AM Supplement): 198 ± 35 min | Nap Duration (senior dogs [2]; PM Supplement): 6.4 +/− 1.2 | Total Daytime Naps (senior dogs [2]; PM Supplement): 45.5 +/− 4.7 | Total Daytime Sleep Minutes (senior dogs [2]; PM Supplement): 264 ± 28 min | Total Night-Time Awakenings (senior dogs [2]; PM Supplement): 52.6 +/− 5.7 | Total Night-Time Wake Minutes (senior dogs [2]; PM Supplement): 209 ± 37 min | increase in total daytime sleep minutes compared to dogs on the control food (senior dogs [2]; PM, melatonin 1 mg/kg BW, 35 days, not statistically significant (p=0.25)): 21% | decrease in total number of awakenings during the sleep phase compared to the control group (senior dogs [2]; melatonin alone with the PM meal): 22% | decrease in average nap length compared to control group (senior dogs [2]; melatonin with the AM meal): 31% | increase in the number of awakenings compared to control group (senior dogs [2]; melatonin with the AM meal): 16.6% | increase in the number of naps compared to control group (senior dogs [2]; melatonin with the AM meal): 10% | increase in night-time wake minutes compared to control group (senior dogs [2]; melatonin with the AM meal, not different from control data): 41% | total number of naps during the 12 hour daytime phase compared to the control group (senior dogs [2]; melatonin with the PM meal): did not change at all | increase in average nap duration compared to the control group (senior dogs [2]; melatonin with the PM meal, 12 hour daytime phase): 18.5% | decrease in total night-time wake minutes compared to the control group (senior dogs [2]; melatonin with the PM meal, not statistically significant): 18.6%
